Columns and labels:
[1] = system: T. brucei; test: Growth inhibition assay of T. brucei cell cultures (Alamar Blue, 48 h); assay type: cell-based; conditions: Trypanosoma brucei; read-out: B) T. brucei EC50
[2] = target: MetRS (T. brucei) (Trypanosoma brucei brucei, UniProt Q38C91); test: MetRS (T. brucei) ATP depletion assay using Kinase-Glo; assay type: biochemical
MetRS (T. brucei), sequence (Q38C91 entry or part of it): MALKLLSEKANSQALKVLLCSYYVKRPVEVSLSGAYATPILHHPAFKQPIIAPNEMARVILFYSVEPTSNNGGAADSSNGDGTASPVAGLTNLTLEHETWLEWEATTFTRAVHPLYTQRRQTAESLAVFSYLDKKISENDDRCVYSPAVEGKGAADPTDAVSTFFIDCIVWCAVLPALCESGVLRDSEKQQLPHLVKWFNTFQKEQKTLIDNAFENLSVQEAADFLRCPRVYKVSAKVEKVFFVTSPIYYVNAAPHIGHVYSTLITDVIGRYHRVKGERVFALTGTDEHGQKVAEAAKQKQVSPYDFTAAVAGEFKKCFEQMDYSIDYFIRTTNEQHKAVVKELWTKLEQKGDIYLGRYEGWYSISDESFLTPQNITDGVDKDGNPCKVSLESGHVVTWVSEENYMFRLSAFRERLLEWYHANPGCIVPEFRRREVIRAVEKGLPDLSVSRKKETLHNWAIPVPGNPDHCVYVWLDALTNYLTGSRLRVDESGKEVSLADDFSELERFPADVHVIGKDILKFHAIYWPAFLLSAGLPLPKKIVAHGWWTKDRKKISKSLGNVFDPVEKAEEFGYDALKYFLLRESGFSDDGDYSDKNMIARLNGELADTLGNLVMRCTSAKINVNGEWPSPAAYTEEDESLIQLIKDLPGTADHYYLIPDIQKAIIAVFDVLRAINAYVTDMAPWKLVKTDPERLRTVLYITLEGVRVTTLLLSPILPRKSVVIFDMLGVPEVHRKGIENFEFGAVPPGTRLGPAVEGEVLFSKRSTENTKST

SMILES | EC50 [1] | IC50 [2]
O=C(NCc1nc2nc(Cl)ccc2[nH]1)Nc1ccc(Cl)cc1Cl [Compound 1891, 3-({5-chloro-3H-imidazo[4,5-b]pyridin-2-yl}methyl)-1-(2,4-dichlorophenyl)urea] | > 20000 nM | 3900 nM
CC(Cc1nc2cc(Cl)c(Cl)cc2[nH]1)NCc1cc(Cl)cc(Cl)c1 (stereo not shown) [Compound 1822, [1-(5,6-dichloro-1H-1,3-benzodiazol-2-yl)propan-2-yl][(3,5-dichlorophenyl)methyl]amine] | 3570 nM | 1490 nM
CCOc1c(Br)cc(Cl)cc1CN[C@H]1CCCN(c2nc3nc(Cl)ccc3[nH]2)C1 [Compound 1937, (S)—N-(3-bromo-5-chloro-2-ethoxybenzyl)-1-(5-chloro-1H-imidazo[4,5-b]pyridin-2-yl)piperidin-3-amine] | 230 nM | 19 nM
N[C@@H](CC(=O)NCc1nc2ccccc2[nH]1)Cc1ccc(F)cc1 [Compound 1703, (3R)-3-amino-N-(1H-1,3-benzodiazol-2-ylmethyl)-4-(4-fluorophenyl)butanamide] | > 10000 nM | 12100 nM
CCCOc1c(Cl)cc(Cl)cc1CN[C@H]1CCCN(c2nc3nc(Cl)ccc3[nH]2)C1 [Compound 1927, (S)-1-(5-chloro-1H-imidazo[4,5-b]pyridin-2-yl)-N-(3,5-dichloro-2-propoxybenzyl)piperidin-3-amine] | 827 nM | 47 nM
Cc1ccc2nc(CC(C)NCc3cc(Cl)cc(Cl)c3)[nH]c2c1 (stereo not shown) [Compound 1820, [(3,5-dichlorophenyl)methyl][1-(6-methyl-1H-1,3-benzodiazol-2-yl)propan-2-yl]amine] | 3140 nM | 290 nM
O=C(COc1ccc(Cl)cc1Cl)NCCc1nc2ccccc2[nH]1 [Compound 1675, N-[2-(1H-1,3-benzodiazol-2-yl)ethyl]-2-(2,4-dichlorophenoxy)acetamide] | > 20000 nM | 8230 nM
Clc1ccc(CNC2CCCN(c3nc4nc(Cl)ccc4[nH]3)C2)c(Cl)c1 (stereo not shown) [Compound 1857, 1-(5-chloro-1H-imidazo[4,5-b]pyridin-2-yl)-N-(2,4-dichlorobenzyl) piperidin-3-amine] | 1480 nM | 72 nM
CC(Cc1nc2cc3ccccc3cc2[nH]1)NCc1cc(Cl)cc(Cl)c1 (stereo not shown) [Compound 1826, [(3,5-dichlorophenyl)methyl](1-{1H-naphtho[2,3-d]imidazol-2-yl}propan-2-yl)amine] | 7940 nM | 454 nM
O=C(Cc1cc2cc(Cl)cc(Cl)c2o1)NCc1nc2ccccc2[nH]1 [Compound 1756, N-((1H-benzo[d]imidazol-2-yl)methyl)-2-(5,7-dichlorobenzofuran-2-yl)acetamide] | > 10000 nM | 3720 nM
Clc1cc(Cl)cc(CNC2CCCC(c3nc4cc(Cl)ccc4[nH]3)C2)c1 (stereo not shown) [Compound 1840, 3-(5-chloro-1H-benzo[d]imidazol-2-yl)-N-(3,5-dichlorobenzyl) cyclohexanamine] | 1950 nM | 580 nM
COc1ccc(Oc2cccc(NCc3nc4ccccc4[nH]3)c2)c(Cl)c1 [Compound 1941, N-(1H-1,3-benzodiazol-2-ylmethyl)-3-(2-chloro-4-methoxyphenoxy)aniline] | 3130 nM | 273 nM
COC(=O)[C@H](Cc1ccc(Cl)cc1Cl)NC(=O)NCc1nc2ccccc2[nH]1 [Compound 1755, methyl (2S)-2-{[(1H-1,3-benzodiazol-2-ylmethyl)carbamoyl]amino}-3-(2,4-dichlorophenyl)propanoate] | > 10000 nM | 1390 nM
Clc1cc(Cl)cc(NC[C@H]2CCCN(c3nc4nc(Cl)ccc4[nH]3)C2)c1 [Compound 1922, (R)-3,5-dichloro-N-((1-(5-chloro-1H-imidazo[4,5-b]pyridin-2-yl)piperidin-3-yl)methyl)aniline] | 2760 nM | 140 nM
O=C(Cc1ccc(Cl)cc1Cl)NCc1nc2cnc(Cl)cc2[nH]1 [Compound 1880, N-({6-chloro-1H-imidazo[4,5-c]pyridin-2-yl}methyl)-2-(2,4-dichlorophenyl)acetamide] | 8400 nM | 214 nM
CC(=O)N(Cc1cc(Cl)cc(Cl)c1)C1CCCN(c2nc3nc(F)ccc3[nH]2)C1 (stereo not shown) [Compound 1887, N-(3,5-dichlorobenzyl)-N-(1-(5-fluoro-1H-imidazo[4,5-b]pyridin-2-yl)piperidin-3-yl)acetamide] | > 20000 nM | 6660 nM
CC(=O)N(Cc1cc(Cl)cc(Cl)c1)[C@@H]1CCC[C@H](c2nc3nc(Cl)ccc3[nH]2)C1 [Compound 1859, N-((1R,3S)-3-(5-chloro-1H-imidazo[4,5-b]pyridin-2-yl)cyclohexyl)-N-(3,5-dichlorobenzyl)acetamide] | > 20000 nM | 1430 nM
COc1cc(CN2CCC[C@H](c3nc4nc(Cl)ccc4[nH]3)C2)cc(OC)c1 [Compound 1872, (S)-5-chloro-2-(1-(3,5-dimethoxybenzyl)piperidin-3-yl)-1H-imidazo[4,5-b]pyridine] | 8340 nM | > 10000 nM
COc1ccc(Oc2nc(O)nc(NCc3nc4ccc(F)nc4[nH]3)n2)c(Cl)c1 [Compound 1885, 4-(2-chloro-4-methoxyphenoxy)-6-[({5-fluoro-3H-imidazo[4,5-b]pyridin-2-yl}methyl)amino]-1,3,5-triazin-2-ol] | 5870 nM | 1510 nM

SMILES | EC50 [1] | IC50 [2]
Clc1cc(Cl)cc(CNC2CCN(c3nc4nc(Cl)ccc4[nH]3)CC2)c1 [Compound 1867, 1-(5-chloro-1H-imidazo[4,5-b]pyridin-2-yl)-N-(3,5-dichlorobenzyl)piperidin-4-amine] | > 20000 nM | 4970 nM
Clc1cc(Cl)cc(CNCCCc2nc3ccc(Cl)cc3[nH]2)c1 [Compound 1832, [3-(6-chloro-1H-1,3-benzodiazol-2-yl)propyl][(3,5-dichlorophenyl)methyl]amine] | 2150 nM | 243 nM
O=C(Cc1cc(Cl)cc(Cl)c1)NCc1nc2ncc(Cl)cc2[nH]1 [Compound 1877, N-({6-chloro-1H-imidazo[4,5-b]pyridin-2-yl}methyl)-2-(3,5-dichlorophenyl)acetamide] | 8680 nM | 191 nM
O=C(NCc1nc2cccnc2[nH]1)OCc1ccccc1 [Compound 1699, benzyl N-{3H-imidazo[4,5-b]pyridin-2-ylmethyl}carbamate] | > 10000 nM | 13100 nM
O=C1CN(C(=O)c2ccc3ccccc3c2)CCN1Cc1nc2ccccc2[nH]1 [Compound 1760, 1-((1H-benzo[d]imidazol-2-yl)methyl)-4-(2-naphthoyl)piperazin-2-one] | > 10000 nM | > 10000 nM
Clc1cc(Cl)cc(CN2CCC[C@@H](c3nc4cc(Cl)ccc4[nH]3)C2)c1 [Compound 1838, (R)-5-chloro-2-(1-(3,5-dichlorobenzyl)piperidin-3-yl)-1H-benzo[d]imidazole] | 8570 nM | > 10000 nM
O=C(CCc1nc2nc(Cl)ccc2[nH]1)NCc1cc(Cl)cc(Cl)c1 [Compound 1944, 3-{5-chloro-1H-imidazo[4,5-b]pyridin-2-yl}-N-[(3,5-dichlorophenyl)methyl]propanamide] | 11700 nM | 535 nM
Clc1cc(Cl)cc(CN2CCC[C@H](c3nc4cc(Cl)ccc4[nH]3)C2)c1 [Compound 1813, (S)-5-chloro-2-(1-(3,5-dichlorobenzyl)piperidin-3-yl)-1H-benzo[d]imidazole] | 1380 nM | 747 nM
O=C(COc1ccc(Cl)cc1Cl)NCc1cc2ccccc2[nH]1 [Compound 1674, 2-(2,4-dichlorophenoxy)-N-(1H-indol-2-ylmethyl)acetamide] | > 20000 nM | 23000 nM
O=C(CC(=O)Nc1ccc(Cl)cc1Cl)NCc1nc2ccccc2[nH]1 [Compound 1803, N1-((1H-benzo[d]imidazol-2-yl)methyl)-N3-(2,4-dichlorophenyl)malonamide] | > 20000 nM | > 10000 nM
O=C(CCOc1ccc(Cl)cc1Cl)NC1(c2nc3ccccc3[nH]2)CC1 [Compound 1738, N-(1-(1H-benzo[d]imidazol-2-yl)cyclopropyl)-3-(2,4-dichlorophenoxy)propanamide] | > 20000 nM | > 10000 nM
O=C(CSc1nc2ccc(Cl)nc2[nH]1)NCc1cc(Cl)cc(Cl)c1 [Compound 1951, 2-({5-chloro-3H-imidazo[4,5-b]pyridin-2-yl}sulfanyl)-N-[(3,5-dichlorophenyl)methyl]acetamide] | 664 nM | 288 nM
CN(CCNCc1cc(Cl)cc(Cl)c1)c1nc2nc(Cl)c(Br)cc2[nH]1 [Compound 1894, 6-bromo-5-chloro-N-(2-{[(3,5-dichlorophenyl)methyl]amino}ethyl)-N-methyl-3H-imidazo[4,5-b]pyridin-2-amine] | 2890 nM | 179 nM
CCC(=O)NC(CC(=O)NCc1cc(Cl)cc(Cl)c1)c1nc2ccc(Cl)nc2[nH]1 (stereo not shown) [Compound 1968, 3-{5-chloro-3H-imidazo[4,5-b]pyridin-2-yl}-N-[(3,5-dichlorophenyl)methyl]-3-propanamidopropanamide] | > 20000 nM | 1860 nM
O=C(Cc1nc2ccc(Cl)cc2[nH]1)NCc1cc(Cl)cc(Cl)c1 [Compound 1804, N-(3,5-dichlorobenzyl)-2-(6-chloro-1H-benzo[d]imidazol-2-yl)acetamide] | 15000 nM | 389 nM
Clc1ccc(Cn2cc(Cc3nc4ccccc4[nH]3)nn2)c(Cl)c1 [Compound 1752, 2-((1-(2,4-dichlorobenzyl)-1H-1,2,3-triazol-4-yl)methyl)-1H-benzo[d]imidazole] | > 10000 nM | 1360 nM
O=C(CCNCc1cc(Cl)cc(Cl)c1)Nc1nc2ncccc2[nH]1 [Compound 1576, 3-(3,5-dichlorobenzylamino)-N-(3H-imidazo[4,5-b]pyridin-2-yl)propanamide] | 403 nM | 109 nM
CC(Cc1nc2ccccc2[nH]1)NCc1cc(Cl)cc(Cl)c1 (stereo not shown) [Compound 1819, [1-(1H-1,3-benzodiazol-2-yl)propan-2-yl][(3,5-dichlorophenyl)methyl]amine] | 8900 nM | 7230 nM
O=C1CN(Cc2ccccc2Cl)CCN1Cc1nc2ccccc2[nH]1 [Compound 1735, 1-(1H-1,3-benzodiazol-2-ylmethyl)-4-[(2-chlorophenyl)methyl]piperazin-2-one] | > 20000 nM | > 10000 nM

— US10913736B2 (UNIVERSITY OF WASHINGTON, priority 2014, dated 2021)
